According to ChEMBL document CHEMBL4342498, “Design and Discovery of an Orally Efficacious Spiroindolinone-Based Tankyrase Inhibitor for the Treatment of Colon Cancer” (J Med Chem, 2020):
In brackets after ≈: the same amount, converted by molar mass.

Tests used:
[1] = tested on: COLO 320DM; assay: Antiproliferative activity against human COLO320DM cells assessed as inhibition of cell growth measured after 4 days by CellTiter-Glo assay; assay type: functional; details: 96 h
[2] = molecular target: T1, Poly [ADP-ribose] polymerase tankyrase-2 (Homo sapiens, UniProt Q9H2K2); assay: Inhibition of recombinant human N-terminal TEV cleavage site-fused/FLAG-poly his-tagged TNKS2 ARC5-SAM-PARP domain (613 to 1166 residues) expressed in Escherichia coli assessed as reduction in auto-PARylation preincubated for 10 mins followed by biotinylated-NAD+ addition and measured after 45 mins by ELISA
T1 sequence (Q9H2K2 whole entry): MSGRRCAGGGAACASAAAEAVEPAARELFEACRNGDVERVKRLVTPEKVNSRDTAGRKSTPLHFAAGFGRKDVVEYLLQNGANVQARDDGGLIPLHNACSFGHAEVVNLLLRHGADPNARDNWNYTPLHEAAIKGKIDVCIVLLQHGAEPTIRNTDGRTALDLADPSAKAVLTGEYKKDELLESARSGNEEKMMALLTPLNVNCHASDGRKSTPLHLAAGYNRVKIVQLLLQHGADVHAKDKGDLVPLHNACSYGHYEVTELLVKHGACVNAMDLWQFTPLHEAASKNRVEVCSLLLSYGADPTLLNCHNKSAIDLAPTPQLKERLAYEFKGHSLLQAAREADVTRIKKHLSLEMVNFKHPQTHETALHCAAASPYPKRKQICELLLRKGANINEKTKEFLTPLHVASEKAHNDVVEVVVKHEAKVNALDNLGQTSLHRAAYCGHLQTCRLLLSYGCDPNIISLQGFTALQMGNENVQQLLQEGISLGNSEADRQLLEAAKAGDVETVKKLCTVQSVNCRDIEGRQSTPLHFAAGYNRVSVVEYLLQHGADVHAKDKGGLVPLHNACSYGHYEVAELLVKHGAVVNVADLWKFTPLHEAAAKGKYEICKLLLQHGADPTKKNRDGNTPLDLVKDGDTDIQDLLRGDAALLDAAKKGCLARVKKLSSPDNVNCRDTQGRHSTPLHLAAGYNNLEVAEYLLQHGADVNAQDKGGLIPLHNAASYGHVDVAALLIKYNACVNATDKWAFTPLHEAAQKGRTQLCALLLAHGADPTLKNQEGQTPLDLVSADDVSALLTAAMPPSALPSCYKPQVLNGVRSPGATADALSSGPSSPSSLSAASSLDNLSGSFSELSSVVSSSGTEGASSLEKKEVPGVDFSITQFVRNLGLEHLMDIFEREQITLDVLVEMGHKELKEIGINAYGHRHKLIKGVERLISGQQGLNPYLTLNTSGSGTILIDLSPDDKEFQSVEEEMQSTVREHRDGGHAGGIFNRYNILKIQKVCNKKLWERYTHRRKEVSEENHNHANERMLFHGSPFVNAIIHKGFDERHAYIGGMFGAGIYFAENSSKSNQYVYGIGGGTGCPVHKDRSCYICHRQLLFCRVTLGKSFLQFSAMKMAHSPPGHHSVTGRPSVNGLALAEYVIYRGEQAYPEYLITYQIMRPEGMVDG

[3] = tested on: MDR1; assay: Efflux ratio of permeability across basolateral to apical side over apical to basolateral side in MDCK2-MDR1 cells; assay type: ADME, cell-based, Canis lupus familiaris; details: dog, MDCK-MDR1
[4] = molecular target: T2, Poly [ADP-ribose] polymerase tankyrase-1 (Homo sapiens, UniProt O95271)
T2 sequence (O95271 whole entry): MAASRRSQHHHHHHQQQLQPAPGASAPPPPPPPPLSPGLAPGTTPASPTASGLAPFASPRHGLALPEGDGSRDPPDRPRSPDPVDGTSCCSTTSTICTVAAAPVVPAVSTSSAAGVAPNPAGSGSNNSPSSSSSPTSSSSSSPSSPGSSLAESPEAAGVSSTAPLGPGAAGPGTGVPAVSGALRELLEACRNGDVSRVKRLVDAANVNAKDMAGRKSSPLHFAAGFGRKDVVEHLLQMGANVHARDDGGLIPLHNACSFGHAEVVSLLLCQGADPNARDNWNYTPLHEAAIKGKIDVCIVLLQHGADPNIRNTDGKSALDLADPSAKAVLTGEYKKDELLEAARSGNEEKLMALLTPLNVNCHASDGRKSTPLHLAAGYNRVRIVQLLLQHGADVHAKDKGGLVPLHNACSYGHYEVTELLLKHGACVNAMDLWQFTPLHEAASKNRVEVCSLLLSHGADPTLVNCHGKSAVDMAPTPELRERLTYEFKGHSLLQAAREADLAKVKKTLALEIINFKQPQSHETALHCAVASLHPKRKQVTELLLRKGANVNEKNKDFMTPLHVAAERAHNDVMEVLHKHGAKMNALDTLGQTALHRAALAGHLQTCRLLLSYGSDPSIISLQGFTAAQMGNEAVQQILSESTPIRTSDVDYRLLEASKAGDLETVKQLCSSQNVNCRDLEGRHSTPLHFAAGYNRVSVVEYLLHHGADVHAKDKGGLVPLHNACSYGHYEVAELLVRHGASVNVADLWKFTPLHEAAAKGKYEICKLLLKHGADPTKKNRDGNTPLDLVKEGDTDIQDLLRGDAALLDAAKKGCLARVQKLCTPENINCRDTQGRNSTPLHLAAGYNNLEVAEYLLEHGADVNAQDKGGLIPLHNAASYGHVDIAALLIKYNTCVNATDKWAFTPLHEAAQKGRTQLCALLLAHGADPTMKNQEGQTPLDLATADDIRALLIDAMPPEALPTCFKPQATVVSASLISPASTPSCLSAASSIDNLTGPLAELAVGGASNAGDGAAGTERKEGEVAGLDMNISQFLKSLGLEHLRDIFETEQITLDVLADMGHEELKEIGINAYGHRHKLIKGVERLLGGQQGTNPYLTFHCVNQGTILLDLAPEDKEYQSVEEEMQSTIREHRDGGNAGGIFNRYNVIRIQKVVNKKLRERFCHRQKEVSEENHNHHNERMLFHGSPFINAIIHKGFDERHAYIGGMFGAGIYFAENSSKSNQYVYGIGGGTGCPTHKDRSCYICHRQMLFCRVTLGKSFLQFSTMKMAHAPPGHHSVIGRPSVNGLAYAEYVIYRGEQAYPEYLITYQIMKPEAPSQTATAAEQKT
Description: Inhibition of recombinant human N-terminal TEV cleavage site-fused/FLAG-poly his-tagged TNKS SAM-PARP domain (1024 to 1327 residues) expressed in Escherichia coli assessed as reduction in auto-PARylation preincubated for 10 mins followed by biotinylated-NAD+ addition and measured after 45 mins by ELISA

[5] = Stability in mouse liver microsomes assessed as parent compound remaining at 1 uM measured after 60 mins in presence of NADPH by LC-MS/MS analysis; assay type: ADME, Microsome; details: read-out: Stability
[6] = Net efflux ratio of permeability across basolateral to apical side over apical to basolateral side in MDCK2-MDR1 cells to MDCK2 cells; assay type: ADME, cell-based, Canis lupus familiaris; details: dog, mdck
[7] = molecular target: T3, Tankyrase 1/2 (Homo sapiens, UniProt Q9H2K2+O95271); details: hek293
T3 sequence (Q9H2K2 whole entry): T1 sequence (Q9H2K2 whole entry)
T3 sequence (O95271 whole entry): T2 sequence (O95271 whole entry)
Description: Inhibition of TNKS/TNKS2 (unknown origin) expressed in HEK293 cells assessed as reduction in Wnt-signaling measured after 24 hrs by TCF-luciferase reporter gene assay

[8] = physchem; details: phosphate buffered saline, pH 7.4
[9] = Stability in human liver microsomes assessed as parent compound remaining at 1 uM measured after 60 mins in presence of NADPH by LC-MS/MS analysis; assay type: ADME, Microsome; details: read-out: Stability
[10] = molecular target: T3, Tankyrase 1/2
Description: Inhibition of TNKS/TNKS2 (unknown origin) expressed in human DLD1 cells assessed as reduction in Wnt-signaling measured after 24 hrs by TCF-luciferase reporter gene assay

[11] = Efflux ratio of permeability across basolateral to apical side over apical to basolateral side in MDCK2 cells; assay type: ADME, cell-based, Canis lupus familiaris, MDCK-II; details: dog, mdck

Row | Compound | GI50 [1] [nM] | IC50 [2] [nM] | efflux ratio [3] | IC50 [4] [nM] | remaining at 1 h, 1 µM [5] [%] | Ratio [6] | IC50 [7] [nM] | solubility at 1 h, 200 µM [8] [µg/mL] | remaining at 1 h, 1 µM [9] [%] | IC50 [10] [nM] | efflux ratio [11]
1 | CN1CCCc2c1nc(N1CCC3(CC1)C(=O)N(C)c1cc(OCCN4CCCC4)cc(F)c13)[nH]c2=O | 1080 | 12.4 | 21.9 | 11.1 | 100 | 3.1 | 0.4 | 100 (≈ 196 µM) | 61.5 | 6.6 | 7.1
2 | COCCOc1cc(F)c2c(c1)N(C)C(=O)C21CCN(c2nc3c(c(=O)[nH]2)CCCN3C)CC1 | 50 | 6.4 | 7.5 | 4.8 | 13.7 | 3.6 | 0.1 | 11.4 (≈ 24.2 µM) | 1.8 | 1.3 | 2.1
3 | CN1CCCc2c1nc(N1CCC3(CC1)C(=O)N(CC#N)c1cc(F)cc(F)c13)[nH]c2=O | 440 | 6.1 | 11.7 | 3.7 | 1.2 | 5.1 | 0.2 | 50.5 (≈ 115 µM) | 6.1 | 1.6 | 2.3
4 | CN1CCc2c1nc(N1CCC3(CC1)CN(CCO)c1cc(F)cc(F)c13)[nH]c2=O | 5010 | 73.6 | – | 53.5 | – | – | 36.5 | – | – | 140.6 | –
5 | CN1CCCc2c1nc(N1CCC3(CC1)C(=O)N(CC(F)(F)F)c1cc(F)cc(F)c13)[nH]c2=O | 70 | 32.4 | 2 | 16.2 | 1 | 2.9 | 0.2 | 1.3 (≈ 2.69 µM) | 8 | 2.4 | 0.7
6 | CN1CCN(CCOc2cc(F)c3c(c2)N(C)C(=O)C32CCN(c3nc4c(c(=O)[nH]3)CCCN4C)CC2)CC1 | 740 | 18.7 | 86.4 | 7.9 | 83.5 | 6.6 | 1.2 | 188 (≈ 348 µM) | 56.5 | 6.3 | 13.1
7 | CN(C)CCOc1cc(F)c2c(c1)N(C)C(=O)C21CCN(c2nc3c(c(=O)[nH]2)CCCN3C)CC1 | 810 | 11.1 | 22.7 | 4.9 | 83.7 | 2.5 | 0.3 | 95 (≈ 196 µM) | 54.4 | 6.1 | 9.2
8 | CN1CCCc2c1nc(N1CCC3(CC1)C(=O)N(C)c1cc(OCCN4CCOCC4)cc(F)c13)[nH]c2=O | 330 | 17.1 | 29.1 | 9.2 | 41.4 | 5.7 | 0.3 | 101 (≈ 192 µM) | 1.5 | 2.8 | 5.1
9 | Cn1ccc2c(=O)[nH]c(N3CCC4(CC3)CN(CCO)c3cc(F)cc(F)c34)nc21 | 3560 | 7 | – | 3.8 | – | – | 1.1 | – | – | 7.1 | –
10 | Cc1cccc2c(=O)[nH]c(N3CCC4(CC3)C(=O)N(CCO)c3cc(F)cc(F)c34)nc12 | 2490 | 3.4 | – | 5.3 | – | – | 0.2 | – | – | 4.8 | –
11 | CN1CCCc2c1nc(N1CCC3(CC1)C(=O)N(C)c1cc(OCCO)cc(F)c13)[nH]c2=O | 160 | 4.7 | 14.9 | 3.5 | 0.7 | 2.4 | 0.8 | 75.1 (≈ 164 µM) | 19.8 | 2.3 | 6.2
12 | Cc1cccc2c(=O)[nH]c(N3CCC4(CC3)CN(CCO)c3cc(F)cc(F)c34)nc12 | 720 | 8.5 | – | 5.5 | – | – | 3.1 | – | – | 13.7 | –
13 | CN1CCCc2c1nc(N1CCC3(CC1)C(=O)N(C)c1cc(OCCN4CCCCC4)cc(F)c13)[nH]c2=O | 1090 | 33.3 | 6.1 | 12 | 56 | 1.9 | 2.5 | 101 (≈ 192 µM) | 18.5 | 5 | 3.2
14 | O=C1N(CCO)c2cc(F)cc(F)c2C12CCN(c1nc3c(c(=O)[nH]1)CCCC3)CC2 | 2270 | 20.6 | – | 14.9 | – | – | 2.1 | – | – | 71.2 | –
15 | Cn1ccc2c(=O)[nH]c(N3CCC4(CC3)C(=O)N(CCO)c3cc(F)cc(F)c34)nc21 | > 20000 | 10.2 | – | 4.5 | – | – | 1.5 | – | – | 6.3 | –
16 | CN1CCc2c1nc(N1CCC3(CC1)C(=O)N(CCO)c1cc(F)cc(F)c13)[nH]c2=O | 2370 | 27.6 | – | 14.1 | – | – | 4.4 | – | – | 32.9 | –
